Results as given in patent US20020115659A1, “Compounds having heterocyclic groups containing two nitrogen atoms for treating multidrug resistance” (priority 2000, published 2002).

System: NIH-MDR1-G185 cells
Test: Fluorescent substrate accumulation assay (BODIPY-FL Taxol accumulation)
Assay type: cell-based
Conditions: MDR modulator 10 micromolar, 15 min preincubation; BODIPY-FL Taxol 500 nM, 40 min at 37° C.; fluorescence in presence/absence of modulator
Method: NIH-MDR1-G185 cells (obtained from M. Gottesman, NIH) were harvested and resuspended in RPMI-1640 containing L-glutamine, 10% Cosmic Calf Serum and penicillin-streptomycin. Cell suspension aliquots of 175 microliters (1×10^5 cells) were added to individual wells of a 96 well microtiter plate and preincubated for 15 min at 37° C. with 20 microliter MDR modulator diluted in cell culture media to give a final concentration of 10 micromolar. Control wells received no modulating agent. BODIPY-FL Taxol (Molecular Probes, Eugene, Oreg.) was added to each well in 10 microliter aliquots to give a final concentration of 500 nM and cells were incubated for 40 min at 37° C. Cells were centrifuged at 100× g for 5 min at 4° C. and the cell pellet washed with 200 microliters cold PBS to remove fluorescent medium from wells. Cells were centrifuged once more, media removed, and cells resuspended in 200 microliters cold PBS. Fluorescence accumulation was measured in a fluorescence plate reader fitted with an excitation filter of 485 nm and an emission filter of 538 rn. BODIPY-FL taxol accumulation in the cells was calculated as follows:
Accumulation Index=(fluorescence in NIH-MDR1-G185 cells in the presence of modulator)/(fluorescence in NIH-MDR1-G185 cells in absence of modulator)
Accumulation Index of various compounds prepared above was tested according to the method in Reference Example 3.

O=C(C(CCCc1ccccc1)CCCc1ccccc1)N1CCCCN(C[C@@H](O)COc2cccc3ncccc23)C1 [Example 5]
Accumulation Index: 12

COc1ccc(S(=O)(=O)N2CCC(=O)N(c3ccccc3)C2C(=O)N2CCN(C(c3ccccc3)c3ccccc3)CC2)cc1OC (centres unmarked) [Example 12]
Accumulation Index: 7
